Earlier results, collected in patent publication US11667623B2, “Scaffold of adenylyl cyclase inhibitors for chronic pain and opioid dependence” (Purdue Research Foundation, priority 2017, dated 2023).

Key:
hAC1 = biological target: T1, hAC1 (Homo sapiens, UniProt Q08828); details: Table 1; data from Brust et al. 2017; cited from earlier work
T1 construct: expressed in transfected cells

HEK-AC1 cells = details: data from Brust et al. 2017; cited from earlier work
hAC2 = biological target: T2, hAC2 (Homo sapiens, UniProt Q08462); details: Table 1; at 30 μM; 100 nM PMA; data from Brust et al. 2017; cited from earlier work
T2 construct: expressed in transfected cells

hAC5 = biological target: T3, hAC5 (Homo sapiens, UniProt O95622); details: Table 1; at 30 μM; 300 nM forskolin; data from Brust et al. 2017; cited from earlier work
T3 construct: expressed in transfected cells
T3 sequence (O95622 whole entry): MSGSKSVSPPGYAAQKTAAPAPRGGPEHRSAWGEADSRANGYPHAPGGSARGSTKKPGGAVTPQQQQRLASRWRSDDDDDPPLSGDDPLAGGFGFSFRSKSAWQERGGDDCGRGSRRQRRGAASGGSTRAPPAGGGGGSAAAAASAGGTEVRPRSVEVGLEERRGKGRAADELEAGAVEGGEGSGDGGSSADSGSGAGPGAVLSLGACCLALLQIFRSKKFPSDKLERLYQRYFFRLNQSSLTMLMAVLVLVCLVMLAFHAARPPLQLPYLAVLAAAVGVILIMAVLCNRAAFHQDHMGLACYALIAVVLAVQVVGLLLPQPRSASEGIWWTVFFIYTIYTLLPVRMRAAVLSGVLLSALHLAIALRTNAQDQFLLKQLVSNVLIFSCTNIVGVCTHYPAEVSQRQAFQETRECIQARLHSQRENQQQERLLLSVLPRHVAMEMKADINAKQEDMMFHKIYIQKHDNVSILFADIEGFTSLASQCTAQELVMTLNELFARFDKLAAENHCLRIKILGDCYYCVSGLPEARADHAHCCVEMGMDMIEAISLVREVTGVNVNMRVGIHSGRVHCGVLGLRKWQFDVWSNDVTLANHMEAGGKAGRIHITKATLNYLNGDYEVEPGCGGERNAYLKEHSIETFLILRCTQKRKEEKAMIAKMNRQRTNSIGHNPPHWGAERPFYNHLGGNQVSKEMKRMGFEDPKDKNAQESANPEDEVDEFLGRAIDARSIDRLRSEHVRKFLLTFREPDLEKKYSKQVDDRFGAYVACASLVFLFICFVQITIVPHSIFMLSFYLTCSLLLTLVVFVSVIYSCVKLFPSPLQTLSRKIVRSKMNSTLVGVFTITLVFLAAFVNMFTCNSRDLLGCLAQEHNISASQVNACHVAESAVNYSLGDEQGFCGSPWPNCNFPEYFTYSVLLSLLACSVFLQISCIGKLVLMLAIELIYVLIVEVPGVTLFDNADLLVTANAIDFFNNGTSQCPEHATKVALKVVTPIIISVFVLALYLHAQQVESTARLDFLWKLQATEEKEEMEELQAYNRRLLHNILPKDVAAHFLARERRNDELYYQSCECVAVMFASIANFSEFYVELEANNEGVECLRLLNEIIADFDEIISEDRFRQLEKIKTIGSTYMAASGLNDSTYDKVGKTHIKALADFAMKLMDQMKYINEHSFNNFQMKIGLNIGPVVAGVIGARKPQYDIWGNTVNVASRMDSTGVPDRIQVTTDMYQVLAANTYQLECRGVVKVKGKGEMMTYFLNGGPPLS

T2 sequence (Q08462 whole entry): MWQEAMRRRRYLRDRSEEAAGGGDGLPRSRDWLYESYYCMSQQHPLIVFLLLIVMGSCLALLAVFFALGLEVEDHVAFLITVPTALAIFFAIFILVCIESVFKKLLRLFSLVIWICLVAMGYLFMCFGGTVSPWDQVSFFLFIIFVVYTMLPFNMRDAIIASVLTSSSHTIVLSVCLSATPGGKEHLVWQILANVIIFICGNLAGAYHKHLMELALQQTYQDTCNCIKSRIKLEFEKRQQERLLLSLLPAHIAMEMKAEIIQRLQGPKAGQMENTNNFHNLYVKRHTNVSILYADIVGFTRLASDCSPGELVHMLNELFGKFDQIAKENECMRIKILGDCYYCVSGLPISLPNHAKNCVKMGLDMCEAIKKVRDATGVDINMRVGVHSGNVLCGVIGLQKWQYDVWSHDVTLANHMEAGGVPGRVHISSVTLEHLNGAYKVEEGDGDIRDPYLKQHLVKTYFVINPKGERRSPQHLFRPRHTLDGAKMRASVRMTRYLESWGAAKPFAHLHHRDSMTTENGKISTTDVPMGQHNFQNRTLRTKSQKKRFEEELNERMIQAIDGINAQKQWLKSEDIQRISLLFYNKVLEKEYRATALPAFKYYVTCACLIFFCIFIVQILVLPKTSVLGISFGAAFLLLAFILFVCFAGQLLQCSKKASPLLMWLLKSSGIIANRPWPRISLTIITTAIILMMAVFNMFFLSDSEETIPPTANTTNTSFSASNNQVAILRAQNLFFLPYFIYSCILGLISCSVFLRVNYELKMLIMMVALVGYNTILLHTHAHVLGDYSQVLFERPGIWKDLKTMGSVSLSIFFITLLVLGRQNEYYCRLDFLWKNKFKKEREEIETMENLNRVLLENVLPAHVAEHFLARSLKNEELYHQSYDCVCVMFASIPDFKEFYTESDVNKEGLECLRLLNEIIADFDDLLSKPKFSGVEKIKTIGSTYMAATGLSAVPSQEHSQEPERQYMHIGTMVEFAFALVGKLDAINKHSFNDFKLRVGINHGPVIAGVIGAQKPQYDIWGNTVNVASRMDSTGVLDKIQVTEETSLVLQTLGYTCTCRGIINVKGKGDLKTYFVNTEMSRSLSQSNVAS
T1 sequence (Q08828 whole entry): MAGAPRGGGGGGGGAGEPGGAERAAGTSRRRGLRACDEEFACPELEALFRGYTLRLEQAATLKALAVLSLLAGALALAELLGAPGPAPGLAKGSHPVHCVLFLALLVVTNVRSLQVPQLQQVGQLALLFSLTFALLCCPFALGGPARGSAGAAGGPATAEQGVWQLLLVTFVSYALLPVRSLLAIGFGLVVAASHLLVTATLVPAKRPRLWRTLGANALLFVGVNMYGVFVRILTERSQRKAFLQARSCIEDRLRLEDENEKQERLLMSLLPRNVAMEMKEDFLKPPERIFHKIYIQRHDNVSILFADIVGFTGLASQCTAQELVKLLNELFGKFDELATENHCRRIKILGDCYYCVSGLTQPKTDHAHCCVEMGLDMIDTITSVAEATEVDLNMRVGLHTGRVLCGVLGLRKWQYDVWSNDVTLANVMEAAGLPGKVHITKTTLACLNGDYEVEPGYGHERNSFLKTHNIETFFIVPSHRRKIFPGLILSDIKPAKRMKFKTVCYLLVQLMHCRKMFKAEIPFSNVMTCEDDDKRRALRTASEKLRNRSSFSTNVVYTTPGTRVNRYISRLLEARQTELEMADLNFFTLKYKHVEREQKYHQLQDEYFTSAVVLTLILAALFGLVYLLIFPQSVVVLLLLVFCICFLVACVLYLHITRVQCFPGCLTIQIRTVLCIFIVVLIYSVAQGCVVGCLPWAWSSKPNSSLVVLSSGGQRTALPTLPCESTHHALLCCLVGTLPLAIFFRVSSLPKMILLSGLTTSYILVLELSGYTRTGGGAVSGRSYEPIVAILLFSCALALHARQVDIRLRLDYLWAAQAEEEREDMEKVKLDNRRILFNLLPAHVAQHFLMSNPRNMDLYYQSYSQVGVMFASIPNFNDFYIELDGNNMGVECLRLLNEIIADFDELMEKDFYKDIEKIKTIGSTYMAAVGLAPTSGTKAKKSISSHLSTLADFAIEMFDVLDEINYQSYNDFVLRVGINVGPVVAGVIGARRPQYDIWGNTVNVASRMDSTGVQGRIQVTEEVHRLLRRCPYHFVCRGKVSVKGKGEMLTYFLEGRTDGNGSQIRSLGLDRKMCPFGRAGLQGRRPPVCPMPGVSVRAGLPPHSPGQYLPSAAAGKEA

## O=c1cc(C(Cl)(Cl)Cl)oc2ccc(Cl)cc12 [ST034307, 6-chloro-2-(trichloromethyl)-4H-chromen-4-one]
hAC1
  hAC1 % Inhib: 108 ± 10%
HEK-AC1 cells
  Viability % Veh: 85 ± 6 % Veh
hAC2
  hAC2 % Inhib: −142%
hAC5
  hAC5 % Inhib: −44%
